# Reference: EP4620957A1, “IMIDAZO[4,5-B]PYRIDIN-7-AMINE COMPOUNDS BINDING AURORA KINASE A AND USES THEREOF” (Eberhard Karls Universität Tübingen, priority 2024, dated 2025)
# Tests used:
# TPX2 = experiment: Cellular Thermal Shift Assay (CETSA) in NMP53-/- cells; type: cell-based, murine; settings: 43.7- 47.9 °C
# NMP19-/- = experiment: XTT cell viability assay (growth curves / growth inhibition); type: cell-based, murine; settings: NMP19-/- cells; at the IC95 concentration of EXAMPLE 3 against NMP53-/- cells; 48h
# Procedure: (§1) In brief, cells were seeded in 6-well plates on day 1. On day 2, cells were treated with either EXAMPLE 3 (AURKA Ligand) or with DMSO (control). After 5 days, wells were washed and cells were fixed with 4% PFA and then stained with Crystal Violet solution. Plates were scanned and pictures were saved. (B) Crystal violet colony formation assay of NMP19-/- or NMP53 murine hepatocellular carcinoma cells. In brief, cells were seeded in 6-well plates on day 1. On day 2, cells were treated with MLN8237 (AURKA inhibitor) or with DMSO (control). After 5 days, wells were washed and cells were fixed with 4% PFA and then stained with Crystal Violet solution. Plates were scanned and pictures were saved. (C) AURKA kinase assay with the AURKA ligand EXAMPLE 3. The AURKA kinase assay was performed by Reaction Biology Corp. and it is based on radiometric ATP quantification. Compounds were received as 10 mM stock. […] Afterwards, an XTT cell viability assay was performed, based on the quantification of metabolic activity of alive cells. […] Finally, slides were mounted and analyzed in a fluorescent microscope. Bar graphs represent quantification of abnormal/normal spindles levels of (B) NMP53^-/- and (C) NMP19^-/- mitotic cells at time points after treatment with 15 nM of EXAMPLE 3. […] Subsequently, they were analyzed in a Flow Cytometry device for quantification of the amount of PI in each cell. […]
# AURKA = target: T1, AURKA (Mus musculus, UniProt P97477); experiment: Cellular Thermal Shift Assay (CETSA) in NMP53-/- cells; type: cell-based, murine; settings: 43.7- 47.9 °C
# T1 construct: endogenous in cells; host or cells: NMP53-/- murine hepatocellular carcinoma cells
# T1 sequence (P97477 1-395): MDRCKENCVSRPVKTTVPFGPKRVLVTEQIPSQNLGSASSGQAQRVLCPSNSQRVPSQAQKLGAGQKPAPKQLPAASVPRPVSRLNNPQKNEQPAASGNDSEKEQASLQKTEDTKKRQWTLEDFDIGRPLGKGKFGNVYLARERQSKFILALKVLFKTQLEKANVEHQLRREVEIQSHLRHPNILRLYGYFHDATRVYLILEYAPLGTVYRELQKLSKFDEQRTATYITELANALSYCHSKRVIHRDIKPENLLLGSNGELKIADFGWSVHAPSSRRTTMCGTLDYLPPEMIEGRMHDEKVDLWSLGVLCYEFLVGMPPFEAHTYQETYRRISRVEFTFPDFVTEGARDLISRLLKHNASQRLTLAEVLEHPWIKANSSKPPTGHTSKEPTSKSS
# [1] = system: BNL CL.2 (non-transformed murine embryonic liver cell line); experiment: XTT cell viability assay (growth curves / growth inhibition); type: cell-based; settings: BNL CL.2 cells; at the IC95 concentration of EXAMPLE 3 against NMP53-/- cells; 48h
# Procedure: as §1
structure (smiles),measurement,setting,value
"Cn1cc(-c2ccc(CNc3ccnc4[nH]c(CCc5ccco5)nc34)cc2)cn1 [Example 3, 2-(2-(furan-2-yl)ethyl)-N-(4-(1-methyl-1H-pyrazol-4-yl)benzyl)-3H-imidazo[4,5-b]pyridin-7-amine]",thermal stabilization of TPX2 (SDS-Page of soluble fraction),TPX2,stabilized
same,growth inhibition in percentage,NMP19-/-,no significant growth inhibition
same,thermal stabilization of AURKA (SDS-Page of soluble fraction),AURKA,stabilized
same,growth inhibition in percentage,[1],no significant growth inhibition
